Measurements: patent US20140298493A1, “PIK3CA H1047R Knock-In Non-Human Animal Breast Cancer Model” (priority 2011, published 2014)
Entries after “also recorded” stand apart in the source; their conditions may differ.

Tests used:
[1] = test system: PIK3CA^e20H1047R mammary tumor explants (spindle cell tumor with TP53 mutations) grown as xenografts; assay: Drug efficacy study: mammary tumor explants implanted subcutaneously near mammary fat pad, tumor growth inhibition and time to progression; format: in vivo, C.B-17 SCID beige mice
Method: Tumor sizes and mouse body weights were recorded twice weekly over the course of the study. […] The 2.5 and 97.5 percentiles of the simulated distribution were used as the […] UIs.

[2] = test system: pAKT and pS6 (PI3K pathway) in PIK3CA^e20H1047R mammary tumor explants; assay: Western blot of tumors from GDC-0941 treated mice (PI3K pathway inhibition); format: in vivo, C.B-17 SCID beige mice; settings: at least up to 10 hours following treatment
Method: Frozen tumors were weighed and lysed with a pestle PP (Scienceware, NJ) in cell extract buffer (Invitrogen, CA) supplemented with protease inhibitors (F. Hoffman-La Roche, Ltd., Germany), 1 mM phenylmethysulfonyl fluoride, and phosphatase inhibitor cocktails 1 and 2 (Sigma, Mo.). Protein concentrations were determined using the Pierce BCA Protein Assay Kit (Rockford, Ill.). For Western blots equal amounts of protein were separated by electrophoresis through NuPage Bis-Tris 4-12% gradient gels (Invitrogen, CA), proteins were transferred onto nitrocellulose pore membranes using the iBlot system (Invitrogen, CA). Primary antibodies used for blotting include pAkt (Ser473), pAkt (Thr308), total Akt, pS6 (Ser235/236), pS6 (Ser240/242) and total S6 antibodies were obtained from Cell Signaling Technology (Danvers, Mass.), and anti-actin antibody was purchased from Sigma-Aldrich (St. Louis, Mo.). Chemiluminescence western blotting detection (Amersham Biosciences, PA) coupled with appropriate secondary horseradish peroxidase-conjugated secondary IgG antibodies was employed, to detect the primary antibody bound proteins.

## CS(=O)(=O)N1CCN(Cc2cc3nc(-c4cccc5[nH]ncc45)nc(N4CCOCC4)c3s2)CC1 [GDC-0941]
[1]; 150 mg/kg, daily oral gavage for 13 days, % TGI relative to vehicle (AUC based), highest TGI
  tumor growth inhibition (TGI): 85%
[1]; FIG. 5a legend
  response of tumor explants grown as xenografts to treatment: respond to treatment
[1]; all doses tested (50, 100, 150 mg/kg), p<0.0001 at 150 mg/kg
  time to progression, log-rank test versus vehicle control: statistically significant difference
[1]; other doses tested (50 and 100 mg/kg), daily oral gavage for 13 days
  tumor growth inhibition compared to vehicle treatment: tumor growth inhibition was also observed
[2]
  pAKT and pS6 in tumor from treated mice: significant decrease in pAKT and pS6; also recorded: evidence of PI3K pathway inhibition
